In ChEMBL document CHEMBL1201862, “PubChem BioAssay data set” (2004):
Active and inactive are the calls of the source.

Key:
[1] = target: Neurotensin receptor type 1 (Homo sapiens, UniProt P30989); type: functional;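 also: Image-based confirmatory dose-response assay measuring agonist activity at NTR1; NTR1-expressing U2OS osteosarcoma cells imaged for beta-arrestin GFP spot formation; agonist potency where compounds increase beta-arrestin recruitment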
[2] = target: T1, Heat shock factor protein 1 (Mus musculus, UniProt P38532); test: HSF1 potentiators in luciferase reporter cells, confirmation, cell-based, NIH3T3, luminescence, dose retest (AID 435004); type: functional;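 also: stress induced by proteasome inhibitor MG132 added 30 min after compound; luciferase reporter driven by HSF1 response element in NIH3T3 cells; actives raise luminescence as potentiators of the MG132 stress response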
T1 sequence (P38532 whole entry): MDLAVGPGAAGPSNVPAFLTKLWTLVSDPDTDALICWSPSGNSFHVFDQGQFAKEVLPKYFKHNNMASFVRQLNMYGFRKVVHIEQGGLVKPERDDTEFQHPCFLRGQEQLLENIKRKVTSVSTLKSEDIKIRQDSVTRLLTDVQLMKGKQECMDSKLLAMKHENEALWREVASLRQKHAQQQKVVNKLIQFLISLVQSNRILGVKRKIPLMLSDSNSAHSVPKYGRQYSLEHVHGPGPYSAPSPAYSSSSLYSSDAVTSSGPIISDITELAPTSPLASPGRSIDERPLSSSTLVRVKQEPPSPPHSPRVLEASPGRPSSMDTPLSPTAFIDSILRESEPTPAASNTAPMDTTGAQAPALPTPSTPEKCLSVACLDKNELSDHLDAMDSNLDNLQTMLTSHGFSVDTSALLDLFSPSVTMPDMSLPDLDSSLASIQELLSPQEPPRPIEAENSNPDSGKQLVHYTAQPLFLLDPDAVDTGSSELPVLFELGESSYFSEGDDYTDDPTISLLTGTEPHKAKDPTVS

[3] = A cytotoxicity screen of small molecule inhibitors of the PhoP region in Salmonella typhi identified in the primary screen. [Related pubchem assays: 1850, 1864, 1985 ]; type: functional
[4] = target: T2, Neuropeptides B/W receptor type 1 (Homo sapiens, UniProt P48145); test: GPR7 antagonist potency, late-stage follow-up, cell-based, fluorescence, dose response (AID 463251); type: functional
T2 sequence (P48145 whole entry): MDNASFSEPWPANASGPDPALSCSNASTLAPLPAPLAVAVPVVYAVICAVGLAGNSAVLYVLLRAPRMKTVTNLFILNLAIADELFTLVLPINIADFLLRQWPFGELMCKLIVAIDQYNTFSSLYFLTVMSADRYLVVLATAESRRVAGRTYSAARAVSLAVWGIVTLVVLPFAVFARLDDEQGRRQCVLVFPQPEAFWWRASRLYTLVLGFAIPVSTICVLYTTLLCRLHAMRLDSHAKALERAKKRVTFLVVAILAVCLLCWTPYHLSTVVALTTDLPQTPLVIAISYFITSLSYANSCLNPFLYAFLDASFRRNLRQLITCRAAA

[5] = target: Melanin-concentrating hormone receptor 1 (Homo sapiens, UniProt Q99705); test: Late-stage fluorescence-based counterscreen for antagonists of the G-protein coupled receptor 7 (GPR7): cell-based dose response assay to identify antagonists of the melanin-concentrating hormone receptor 1 (MCHR1). [Related pubchem assays (depositor defined):AID1861, AID1880, AID1952, AID2148, AID2251, AID2257, AID485339]; type: functional;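 also: stimulated with 30 nM MCH peptide agonist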
[6] = target: G2/mitotic-specific cyclin-B1 (Homo sapiens, UniProt P14635); test: G2/M cell cycle arrest in HeLa, late-stage follow-up, mechanism study for Wee1 degradation inhibitor project, FACS, panel member Cyclin B Degradation (AID 2088)
Wee1-like protein kinase = Wee1-like protein kinase (Homo sapiens, UniProt P30291); test: G2/M cell cycle arrest in HeLa, late-stage follow-up, mechanism study for Wee1 degradation inhibitor project, FACS, panel member Wee1 Degradation (AID 2088)
[7] = target: Acyl-homoserine lactone acylase PvdQ (Pseudomonas aeruginosa (strain LESB58), UniProt Q9I194); test: P. aeruginosa PvdQ acylase inhibitors, dose response, biochemical, fluorescence, plate reader and imaging, cherry-picks (AID 493231)
Aminopeptidase N = Aminopeptidase N (Plasmodium falciparum FcB1/Columbia, UniProt O96935); test: P. falciparum M1AAP inhibitors, biochemical, fluorogenic H-Leu-NHMec substrate, 1536-well (AID 1445); design: species or system Plasmodium falciparum 3D7, 3D7
[8] = target: T1, Heat shock factor protein 1; test: inhibition of MG132-induced HSE-luciferase signal, confirmation, cell-based, NIH3T3, luminescence, dose retest (AID 2382); type: functional;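 also: NIH3T3 fibroblasts with HSF1-driven luciferase reporter stressed by proteasome inhibitor MG132; luminescence from HSF1-driven luciferase expression after 8 hours of MG132 stress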
Paired box protein Pax-8 = Paired box protein Pax-8 (Homo sapiens, UniProt Q06710); test: inhibitors of PAX8-driven TPO luciferase reporter, dose response, RMG-I cells, cherry-pick (AID 687027); type: functional, cell-based;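 also: luciferase reporter driven by Pax8 target thyroperoxidase promoter measured by SteadyGlo luminescence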
[9] = non-specific cell cytotoxicity, dose response, cytotoxicity control for PAX8 inhibitor project, plate reader, dry powder samples (AID 743021); type: functional, cell-based
[10] = cytotoxicity in HEK-293T cells, dose response, cytotoxicity control for TCR NF-kB inhibitor project, luminescence, T-cell screen hits (AID 489026); type: functional, cell-based;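 also: cells exposed to compound about 14 hours before the viability readout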
[11] = target: Luciferin 4-monooxygenase (Photinus pyralis, UniProt P08659); test: firefly luciferase enzyme inhibitors, dose response, biochemical, luminescence (AID 1891)
[12] = inhibition of ADP-Glo detection reagents, dose response, artefact control for CDK5 inhibitor project, biochemical, luminescence, cherry-picked samples, set 2 (AID 504546); type: functional
[13] = Luminescence Cell-Based Dose Confirmation HTS to Identify Inhibitors of Platelet Dense Granule Release. [Related pubchem assays: 1663 (Primary HTS), 1678 (Summary of Project)]; type: functional
[14] = target: Cyclin-dependent kinase 5/CDK5 activator 1 (Homo sapiens, UniProt Q00535); test: CDK5/p35 kinase inhibitors, dose response, biochemical, cherry-picked samples, set 2 (AID 504545)
[15] = target: Voltage-gated N-type calcium channel alpha-1B subunit/Amyloid beta A4 precursor protein-binding family A member 1 (Homo sapiens, UniProt Q00975+Q02410); test: disruptors of Mint-PDZ/N-type channel peptide interaction – biochemical, HTRF, set 2, SAR follow-up (AID 434980); type: functional
[16] = target: T3, Polyadenylate-binding protein 1 (Homo sapiens, UniProt P11940); test: PABP inhibition in translation initiation, SAR follow-up (AID 435018); type: functional
[17] = target: T4, Eukaryotic translation initiation factor 4H (Homo sapiens, UniProt Q15056); test: eIF4H inhibition in translation initiation, SAR follow-up (AID 435011); type: functional
[18] = Luminescence Cell-Based Dose Retest to Confirm Inhibitors of Cancer Stem Cells. [Related pubchem assays (depositor defined):AID2717, AID2721]; type: functional; conditions: Homo sapiens
[19] = growth suppression of beta-catenin-knockout colon cells, dose response, cell-based, HCT116, human colon tumor (AID 1045); type: functional;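 also: HCT116 colon tumor cells with beta catenin knocked out; cells exposed to compound for 60 hours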
Vasopressin V1a receptor = Vasopressin V1a receptor (Homo sapiens, UniProt P37288); test: Counterscreen for Oxytocin Receptor (OXTR) agonists: Fluorescence-based cell-based high throughput dose response assay to identify agonists of the vasopressin 1 receptor (V1R). [Related pubchem assays: 2435 (Primary screen (OXTR agonists in singlicate)), 434991 (Counterscreen (V1R agonists in triplicate)), 2482 (Summary (OXTR agonists)) …; type: functional
INS1 = test: beta cell apoptosis inhibitors, cytokine rescue, dose response, luminescence, retest (AID 449756); type: functional, cell-based; conditions: Rattus norvegicus;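 also: cell death triggered by IL-1 beta plus TNF-alpha plus IFN-gamma mixture; protective hits raise ATP signal compared with cytokine alone wells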
[20] = growth suppression of PTEN-null colon cells, dose response, cell-based, HCT116 PTEN knockout (AID 1047); type: functional;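 also: HCT116 colon tumor cells with PTEN knocked out; cells exposed to compound for 60 hours before readout; potency for loss of cell viability measured by luminescence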
Oxytocin receptor = Oxytocin receptor (Homo sapiens, UniProt P30559); test: Fluorescence-based cell-based high throughput dose response assay for agonists of the Oxytocin Receptor (OXTR). [Related pubchem assays: 2435 (Primary screen (OXTR agonists in singlicate)), 434991 (Counterscreen (V1R agonists in triplicate)), 2482 (Summary (OXTR agonists)), 434963 (Confirmation screen (OXTR agonists in triplicate))]; type: functional
[21] = target: T4, Eukaryotic translation initiation factor 4H; test: human eIF4H binding inhibitors, primary screen, translation initiation inhibitor project, biochemical, uHTS, fluorescence polarization (AID 2012)
[22] = target: T3, Polyadenylate-binding protein 1; test: PABP poly(A) RNA binding inhibitors, primary screen, biochemical, fluorescence polarization, uHTS (AID 2014)
[23] = target: Transitional endoplasmic reticulum ATPase (Homo sapiens, UniProt P55072); test: p97 ATPase inhibitors, dose response, biochemical (AID 1534)
[24] = target: Transitional endoplasmic reticulum ATPase (Homo sapiens, UniProt P55072, C522A); test: C522A mutant p97 ATPase inhibitors, dose response, counter-screen for p97 inhibitor project, biochemical, luminescence (AID 1544)
Cytochrome P450 2C9 = Cytochrome P450 2C9 (Homo sapiens, UniProt P11712); conditions: Potency
Cytochrome P450 3A4 = Cytochrome P450 3A4 (Homo sapiens, UniProt P08684); conditions: Potency;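 also: confirmatory qHTS run detecting inhibitors and substrates of CYP3A4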
[25] = target: Protein phosphatase methylesterase 1 (Homo sapiens, UniProt Q9Y570); test: PME-1 inhibitor potency by in-gel ABPP, dose response, selectivity assay for PME-1 inhibitor project, cell lysate, mouse brain cytosol, FP-rhodamine, panel member PME-1 Assay Panel member description: Inhibition of endogenously expressed PME-1 (AID 2366)
[26] = A Cell Based Secondary Assay To Explore Cytotoxicity of Compounds that Sensitize Mycobacterium Tuberculosis to Beta-Lactam Antibiotics.; type: functional
[27] = target: T5, Alkaline phosphatase, tissue-nonspecific isozyme (Homo sapiens, UniProt P05186)
T5 sequence (P05186 whole entry): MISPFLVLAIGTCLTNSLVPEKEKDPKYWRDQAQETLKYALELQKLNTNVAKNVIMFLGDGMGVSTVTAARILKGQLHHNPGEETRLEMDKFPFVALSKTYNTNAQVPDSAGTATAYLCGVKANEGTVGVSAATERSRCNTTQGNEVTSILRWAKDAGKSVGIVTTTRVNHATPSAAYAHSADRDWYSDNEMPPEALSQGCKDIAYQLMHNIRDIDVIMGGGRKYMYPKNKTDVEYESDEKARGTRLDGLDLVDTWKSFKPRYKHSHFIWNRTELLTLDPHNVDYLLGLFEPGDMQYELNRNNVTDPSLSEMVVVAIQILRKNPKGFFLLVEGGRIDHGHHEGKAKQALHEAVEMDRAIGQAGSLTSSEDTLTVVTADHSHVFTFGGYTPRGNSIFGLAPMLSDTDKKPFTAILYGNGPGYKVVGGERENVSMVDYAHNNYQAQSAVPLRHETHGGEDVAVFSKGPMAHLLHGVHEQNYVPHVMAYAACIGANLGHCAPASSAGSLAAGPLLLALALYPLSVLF

H9c2 = test: cells; type: functional, cell-based; conditions: Rattus norvegicus, H9c2, Myocardium
Procathepsin L = Procathepsin L (Homo sapiens, UniProt P07711)
Aspartyl aminopeptidase = Aspartyl aminopeptidase (Plasmodium falciparum 3D7, UniProt Q8I2J3)
[28] = target: Potassium voltage-gated channel subfamily KQT member 2 (Rattus norvegicus, UniProt O88943); test: retigabine-insensitive KCNQ2 potentiators, concentration-response, dose response, cell-based, retigabine-insensitive compounds (AID 2654); type: functional
Staphylococcus aureus = test: Inhibitors of Bacterial Quorum Sensing Structure Activity Relationship (SAR) Analysis: Dose Response Assay. [Related pubchem assays: 700, 527 ]; type: functional, organism-based

T3 sequence (P11940 whole entry): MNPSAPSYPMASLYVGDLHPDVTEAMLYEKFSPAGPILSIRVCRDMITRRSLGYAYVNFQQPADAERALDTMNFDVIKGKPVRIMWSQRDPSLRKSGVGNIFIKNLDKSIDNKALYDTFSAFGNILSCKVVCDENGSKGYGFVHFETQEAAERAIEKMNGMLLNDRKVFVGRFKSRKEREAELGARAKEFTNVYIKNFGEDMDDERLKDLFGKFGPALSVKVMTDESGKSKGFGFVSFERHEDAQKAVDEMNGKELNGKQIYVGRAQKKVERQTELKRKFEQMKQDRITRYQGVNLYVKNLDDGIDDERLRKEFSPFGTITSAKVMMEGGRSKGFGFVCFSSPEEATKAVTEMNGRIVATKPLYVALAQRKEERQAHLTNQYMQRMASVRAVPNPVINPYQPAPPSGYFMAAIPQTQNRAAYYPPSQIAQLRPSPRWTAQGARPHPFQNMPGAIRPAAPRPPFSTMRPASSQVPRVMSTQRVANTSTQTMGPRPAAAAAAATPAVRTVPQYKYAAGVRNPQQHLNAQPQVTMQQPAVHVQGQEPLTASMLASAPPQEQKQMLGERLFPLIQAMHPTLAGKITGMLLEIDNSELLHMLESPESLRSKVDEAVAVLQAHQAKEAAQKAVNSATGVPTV
Voltage-gated N-type calcium channel alpha-1B subunit/Amyloid beta A4 precursor protein-binding family A member 1, sequence (Q00975 whole entry): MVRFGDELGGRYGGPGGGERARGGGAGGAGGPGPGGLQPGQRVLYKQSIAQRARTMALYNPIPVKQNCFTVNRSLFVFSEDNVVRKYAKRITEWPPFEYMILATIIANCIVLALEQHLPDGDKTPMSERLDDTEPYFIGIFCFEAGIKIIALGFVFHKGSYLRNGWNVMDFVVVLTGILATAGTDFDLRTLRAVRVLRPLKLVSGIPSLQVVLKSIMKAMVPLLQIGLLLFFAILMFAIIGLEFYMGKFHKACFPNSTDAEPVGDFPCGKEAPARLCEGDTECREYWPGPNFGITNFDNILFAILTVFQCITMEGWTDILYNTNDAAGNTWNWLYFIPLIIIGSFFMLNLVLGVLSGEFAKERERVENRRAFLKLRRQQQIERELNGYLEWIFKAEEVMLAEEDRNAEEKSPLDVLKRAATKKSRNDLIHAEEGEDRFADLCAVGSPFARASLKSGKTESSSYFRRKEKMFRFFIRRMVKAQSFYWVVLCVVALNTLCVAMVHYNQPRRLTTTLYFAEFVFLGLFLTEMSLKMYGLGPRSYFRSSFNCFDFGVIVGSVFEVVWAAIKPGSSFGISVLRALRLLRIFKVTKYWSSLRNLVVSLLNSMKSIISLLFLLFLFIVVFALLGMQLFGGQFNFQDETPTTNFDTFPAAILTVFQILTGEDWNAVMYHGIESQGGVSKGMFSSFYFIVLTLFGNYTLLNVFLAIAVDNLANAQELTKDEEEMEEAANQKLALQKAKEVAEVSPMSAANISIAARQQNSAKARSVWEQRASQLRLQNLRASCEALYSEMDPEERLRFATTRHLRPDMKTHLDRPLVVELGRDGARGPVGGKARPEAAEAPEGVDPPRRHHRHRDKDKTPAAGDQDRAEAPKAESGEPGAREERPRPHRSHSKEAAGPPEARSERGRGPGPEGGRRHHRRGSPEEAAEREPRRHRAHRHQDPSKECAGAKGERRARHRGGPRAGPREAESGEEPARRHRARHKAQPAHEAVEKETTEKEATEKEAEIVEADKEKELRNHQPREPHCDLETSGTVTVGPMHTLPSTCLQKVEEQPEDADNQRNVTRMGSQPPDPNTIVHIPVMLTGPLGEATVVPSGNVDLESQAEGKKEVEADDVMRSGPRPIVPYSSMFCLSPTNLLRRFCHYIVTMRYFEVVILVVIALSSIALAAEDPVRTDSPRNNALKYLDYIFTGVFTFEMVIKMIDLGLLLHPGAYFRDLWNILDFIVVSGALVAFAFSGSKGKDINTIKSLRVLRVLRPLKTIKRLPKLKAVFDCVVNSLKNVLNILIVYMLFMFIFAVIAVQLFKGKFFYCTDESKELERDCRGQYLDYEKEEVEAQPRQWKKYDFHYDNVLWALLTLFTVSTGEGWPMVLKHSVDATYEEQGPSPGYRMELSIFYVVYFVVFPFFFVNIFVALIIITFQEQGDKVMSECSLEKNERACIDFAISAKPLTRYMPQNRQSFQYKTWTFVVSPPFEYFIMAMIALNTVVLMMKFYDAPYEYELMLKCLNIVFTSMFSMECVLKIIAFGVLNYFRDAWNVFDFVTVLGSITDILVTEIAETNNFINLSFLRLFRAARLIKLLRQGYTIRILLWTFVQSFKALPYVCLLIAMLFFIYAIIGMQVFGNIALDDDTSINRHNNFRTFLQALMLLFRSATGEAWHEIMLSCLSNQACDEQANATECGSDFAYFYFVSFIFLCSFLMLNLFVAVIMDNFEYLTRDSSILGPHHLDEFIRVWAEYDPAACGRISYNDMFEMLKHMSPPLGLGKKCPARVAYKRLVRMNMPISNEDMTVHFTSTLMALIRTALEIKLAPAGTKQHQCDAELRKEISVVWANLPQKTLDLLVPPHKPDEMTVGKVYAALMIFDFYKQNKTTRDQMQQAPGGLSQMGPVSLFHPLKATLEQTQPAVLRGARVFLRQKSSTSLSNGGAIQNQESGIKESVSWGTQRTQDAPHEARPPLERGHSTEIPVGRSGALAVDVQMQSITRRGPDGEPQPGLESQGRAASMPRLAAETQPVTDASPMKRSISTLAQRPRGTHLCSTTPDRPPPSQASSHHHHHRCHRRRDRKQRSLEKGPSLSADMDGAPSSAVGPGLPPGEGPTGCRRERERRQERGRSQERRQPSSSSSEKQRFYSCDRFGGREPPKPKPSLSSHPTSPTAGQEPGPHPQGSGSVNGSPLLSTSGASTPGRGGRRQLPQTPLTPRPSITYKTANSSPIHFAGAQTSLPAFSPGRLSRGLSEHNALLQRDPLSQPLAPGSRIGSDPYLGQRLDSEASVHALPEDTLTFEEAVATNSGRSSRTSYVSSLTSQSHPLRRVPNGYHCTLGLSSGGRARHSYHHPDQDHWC
Voltage-gated N-type calcium channel alpha-1B subunit/Amyloid beta A4 precursor protein-binding family A member 1, sequence (Q02410 whole entry): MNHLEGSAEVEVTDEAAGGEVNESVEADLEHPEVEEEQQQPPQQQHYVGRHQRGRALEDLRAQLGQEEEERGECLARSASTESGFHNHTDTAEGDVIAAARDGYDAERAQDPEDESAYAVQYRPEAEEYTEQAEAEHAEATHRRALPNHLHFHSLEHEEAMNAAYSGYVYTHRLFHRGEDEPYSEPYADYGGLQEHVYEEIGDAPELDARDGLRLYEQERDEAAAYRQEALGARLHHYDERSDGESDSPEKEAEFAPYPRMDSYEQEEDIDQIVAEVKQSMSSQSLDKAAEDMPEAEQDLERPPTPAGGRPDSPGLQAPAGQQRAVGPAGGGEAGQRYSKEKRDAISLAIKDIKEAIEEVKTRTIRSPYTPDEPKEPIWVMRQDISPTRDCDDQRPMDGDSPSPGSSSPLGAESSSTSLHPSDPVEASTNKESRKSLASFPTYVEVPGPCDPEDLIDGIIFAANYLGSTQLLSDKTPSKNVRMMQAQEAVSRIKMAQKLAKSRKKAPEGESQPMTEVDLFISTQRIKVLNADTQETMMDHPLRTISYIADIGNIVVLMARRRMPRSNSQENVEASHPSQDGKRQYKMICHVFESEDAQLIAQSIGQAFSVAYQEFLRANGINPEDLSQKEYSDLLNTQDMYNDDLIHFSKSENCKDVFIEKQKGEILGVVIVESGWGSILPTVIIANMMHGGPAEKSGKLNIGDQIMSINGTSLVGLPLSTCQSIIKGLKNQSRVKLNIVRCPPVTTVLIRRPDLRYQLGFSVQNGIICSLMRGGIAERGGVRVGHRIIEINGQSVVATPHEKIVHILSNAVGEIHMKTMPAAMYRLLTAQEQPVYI
G2/mitotic-specific cyclin-B1, sequence (P14635 whole entry): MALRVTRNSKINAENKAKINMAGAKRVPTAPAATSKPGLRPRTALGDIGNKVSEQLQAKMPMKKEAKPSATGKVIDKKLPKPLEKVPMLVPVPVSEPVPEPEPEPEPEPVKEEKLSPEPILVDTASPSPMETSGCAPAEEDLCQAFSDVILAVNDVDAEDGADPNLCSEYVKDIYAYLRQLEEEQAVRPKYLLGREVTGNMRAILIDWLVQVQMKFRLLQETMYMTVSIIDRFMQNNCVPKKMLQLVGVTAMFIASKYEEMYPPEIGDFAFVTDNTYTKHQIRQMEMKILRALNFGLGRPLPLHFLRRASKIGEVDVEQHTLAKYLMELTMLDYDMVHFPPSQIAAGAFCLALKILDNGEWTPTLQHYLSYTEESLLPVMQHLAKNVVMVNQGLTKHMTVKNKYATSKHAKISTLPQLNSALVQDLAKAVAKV
Cytochrome P450 3A4, sequence (P08684 whole entry): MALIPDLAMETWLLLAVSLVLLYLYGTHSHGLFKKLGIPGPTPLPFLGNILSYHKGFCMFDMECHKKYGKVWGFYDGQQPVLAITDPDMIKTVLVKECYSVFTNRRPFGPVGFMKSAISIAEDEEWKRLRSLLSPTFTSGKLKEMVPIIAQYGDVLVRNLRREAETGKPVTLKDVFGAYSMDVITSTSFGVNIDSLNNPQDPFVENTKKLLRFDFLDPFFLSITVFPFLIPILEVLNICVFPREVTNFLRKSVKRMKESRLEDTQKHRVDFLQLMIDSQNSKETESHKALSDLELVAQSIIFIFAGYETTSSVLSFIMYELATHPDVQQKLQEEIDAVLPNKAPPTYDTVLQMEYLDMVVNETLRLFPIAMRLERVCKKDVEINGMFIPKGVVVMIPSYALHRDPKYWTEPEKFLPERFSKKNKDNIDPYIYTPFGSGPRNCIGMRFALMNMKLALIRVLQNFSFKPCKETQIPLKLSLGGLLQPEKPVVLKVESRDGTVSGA

## CC1(C)CC(=O)C(=Cc2cn(-c3ccccc3)nc2-c2ccccc2)C(=O)C1
[1]
  EC50: 33.9 µM (inactive)
[2]
  EC50: 20.7 µM (active)

## Cc1nn(-c2cc(N3CCNCC3)ccc2[N+](=O)[O-])c(=O)c2ccccc12
[3]
  EC50: > 50 µM (active)

## COc1nn(-c2cccc(C)c2)c(=O)c(Cl)c1Cl
[4]
  IC50: 5.4 µM (active)
[5]
  IC50: 3.1 µM (active)

## Cc1ccc(OCC(=O)Nc2cc(C)nn2-c2nc(C)cc(O)n2)cc1
[6]
  EC50: > 49.7 µM (inactive)
Wee1-like protein kinase
  EC50: > 16.6 µM (active)

## N#CC(c1ccc(Cl)nn1)c1ccccc1Cl (stereo not given)
[7]
  AC50: 0.944 µM (active)

## CC(C)CCNC(=O)CSc1nc2ccsc2c(=O)n1NC(=O)c1ccccc1
Aminopeptidase N
  IC50: 87.1 µM (active)

## COc1ccc(C(=O)NNC(=O)c2ccccn2)cc1
[8]
  EC50: 1.11 µM (active)
Paired box protein Pax-8
  AC50: 7.51 µM (active)
[9]
  AC50: 15.7 µM (active)
[10]
  IC50: > 80 µM (inactive)
[11]
  EC50: 0.98 µM (active)
[12]
  AC50: 14.2 µM (active)
[13]
  EC50: 0.429 µM (active)
[14]
  AC50: 8.77 µM (active)

## O=C(c1cc(-c2ccco2)nc2ccccc12)N1CCC(N2CCCC2)CC1
[15]
  IC50: > 56.8 µM (inactive)

## Cc1nnc(NC(=O)CSc2ccc(-c3ccco3)nn2)s1
[16]
  IC50: 64.1 µM (active)
[17]
  IC50: 6.17 µM (active)

## COc1ccc(C2NCCc3c2[nH]c2ccccc32)cc1COc1ccc(F)cc1 (stereo not given)
[18]
  AC50: 5.89 µM (active)
[19]
  EC50: 7.05 µM (active)
Vasopressin V1a receptor
  EC50: 20.8 µM (not active)
INS1
  AC50: 6.96 µM (active)
[20]
  EC50: 6.19 µM (active)
Oxytocin receptor
  EC50: 26.7 µM (not active)

## C[N+]1(C)[C@@H]2CC[C@H]1CC(OC(=O)C(c1ccccc1)c1ccccc1)C2 (stereo not given in full)
[21]
  IC50: > 100 µM (inactive)
[22]
  IC50: 6.66 µM (active)

## Fc1ccccc1-c1nc(NCc2ccccc2)c2ccccc2n1
[23]
  IC50: > 50 µM (not active)
[24]
  IC50: > 50 µM (not active)

## COc1cc2c(cc1O)C[C@H]1c3c(cc(OC)c(O)c3-2)CCN1C [ISOBOLDINE]
Cytochrome P450 2C9
  AC50: 25.1 µM (inconclusive)
Cytochrome P450 3A4
  AC50: 20 µM (inconclusive)

## CC(C)c1cc(C(C)C)c(S(=O)(=O)n2cccc2/C=C(\C#N)S(C)(=O)=O)c(C(C)C)c1
[25]
  IC50: > 20 µM (inactive)

## Cc1ccc(C)c(NC(=O)C(Sc2nc3ccccc3c(=O)n2CC(C)C)c2ccccc2)c1 (stereo not given)
[26]
  CC50: 21.3 µM (active)
[27]
  EC50: > 100 µM (not active)
H9c2
  IC50: 36.3 µM (inactive)

## CC(C)(C)c1ccc(O)c(/N=C/c2cc(Br)ccc2O)c1
Procathepsin L
  IC50: > 59.6 µM (not active)
Aspartyl aminopeptidase
  IC50: 0.807 µM (active)

## O=C(Nc1cccc(F)c1)Nc1cncc(F)c1
[28]
  EC50: 6.32 µM (active)

## O=C(NCC(c1cccnc1)N1CCN(c2ccccc2F)CC1)c1cccc(Cl)c1 (stereo not given)
Staphylococcus aureus
  IC50: 0.597 µM (active)
